Laboratory results: ChEMBL document CHEMBL4610047, “Design, synthesis and anti-Alzheimer's disease activity study of xanthone derivatives based on multi-target strategy” (Bioorg Med Chem Lett, 2020)
Activity calls are given as the source filed them. The calls are words filed in the database; no cut-off is given here.

Columns and labels:
[1] = Metal chelating activity assessed as compound-Cu2+ complex formation by measuring band wavelength at 10 uM in presence of CuCl2 after 30 mins by UV-visible spectrophotometric analysis
[2] = molecular target: Acetylcholinesterase (Electrophorus electricus, UniProt O42275); assay: Inhibition of electric eel AChE using acetylthiocholine iodide as substrate by Ellman's method
Acetylcholinesterase, sequence (O42275 whole entry): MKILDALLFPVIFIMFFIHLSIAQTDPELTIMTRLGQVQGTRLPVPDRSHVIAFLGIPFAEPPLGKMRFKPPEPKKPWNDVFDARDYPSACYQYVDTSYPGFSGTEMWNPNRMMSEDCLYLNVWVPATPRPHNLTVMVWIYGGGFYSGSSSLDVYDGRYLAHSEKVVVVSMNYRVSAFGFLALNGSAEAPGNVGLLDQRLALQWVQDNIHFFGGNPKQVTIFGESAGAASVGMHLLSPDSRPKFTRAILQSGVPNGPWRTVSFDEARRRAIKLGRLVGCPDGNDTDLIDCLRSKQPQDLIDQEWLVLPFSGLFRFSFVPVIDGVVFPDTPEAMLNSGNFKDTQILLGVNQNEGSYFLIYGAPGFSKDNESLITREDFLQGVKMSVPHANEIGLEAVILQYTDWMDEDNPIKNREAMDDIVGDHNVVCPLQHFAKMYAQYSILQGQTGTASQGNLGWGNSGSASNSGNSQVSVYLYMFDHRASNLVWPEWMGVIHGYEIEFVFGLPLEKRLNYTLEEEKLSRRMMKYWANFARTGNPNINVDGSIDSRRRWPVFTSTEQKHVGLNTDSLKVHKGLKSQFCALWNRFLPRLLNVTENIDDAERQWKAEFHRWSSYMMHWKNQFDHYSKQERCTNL

[3] = molecular target: Cholinesterase (Equus caballus, UniProt P81908); assay: Inhibition of equine serum BChE using butyrylthiocholine as substrate by Ellman's method
Cholinesterase, sequence (P81908 whole entry): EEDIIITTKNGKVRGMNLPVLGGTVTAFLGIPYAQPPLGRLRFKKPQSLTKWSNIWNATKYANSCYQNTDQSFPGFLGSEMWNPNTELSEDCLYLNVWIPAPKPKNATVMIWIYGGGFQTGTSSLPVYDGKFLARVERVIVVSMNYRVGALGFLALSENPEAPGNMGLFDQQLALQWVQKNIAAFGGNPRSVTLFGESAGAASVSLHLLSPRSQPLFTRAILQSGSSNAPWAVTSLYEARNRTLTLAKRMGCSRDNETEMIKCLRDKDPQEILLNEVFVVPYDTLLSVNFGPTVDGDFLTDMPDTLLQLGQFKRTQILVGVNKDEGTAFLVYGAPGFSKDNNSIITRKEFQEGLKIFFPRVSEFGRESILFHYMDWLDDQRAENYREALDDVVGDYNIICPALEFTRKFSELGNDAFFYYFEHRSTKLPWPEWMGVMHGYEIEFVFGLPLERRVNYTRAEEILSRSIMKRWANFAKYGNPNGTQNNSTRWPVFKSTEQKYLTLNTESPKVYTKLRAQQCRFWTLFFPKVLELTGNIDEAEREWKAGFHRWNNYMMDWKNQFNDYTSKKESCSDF

[4] = Metal chelating activity assessed as compound-Cu2+ complex stoichiometry ratio of 2:1 at 10 uM in presence of CuCl2 after 30 mins by UV-visible spectrophotometric analysis
[5] = Metal chelating activity assessed as compound-Cu2+ complex formation by measuring stability constant at 10 uM in presence of CuCl2 after 30 mins by UV-visible spectrophotometric analysis
[6] = molecular target: Acetylcholinesterase (Electrophorus electricus) (UniProt O42275); assay: Mixed type inhibition of electric eel AChE assessed as increase in Km at 0.16 to 0.64 uM by reciprocal Lineweaver-Burk plot analysis
Acetylcholinesterase (Electrophorus electricus), sequence (O42275 24-633 limits assumed): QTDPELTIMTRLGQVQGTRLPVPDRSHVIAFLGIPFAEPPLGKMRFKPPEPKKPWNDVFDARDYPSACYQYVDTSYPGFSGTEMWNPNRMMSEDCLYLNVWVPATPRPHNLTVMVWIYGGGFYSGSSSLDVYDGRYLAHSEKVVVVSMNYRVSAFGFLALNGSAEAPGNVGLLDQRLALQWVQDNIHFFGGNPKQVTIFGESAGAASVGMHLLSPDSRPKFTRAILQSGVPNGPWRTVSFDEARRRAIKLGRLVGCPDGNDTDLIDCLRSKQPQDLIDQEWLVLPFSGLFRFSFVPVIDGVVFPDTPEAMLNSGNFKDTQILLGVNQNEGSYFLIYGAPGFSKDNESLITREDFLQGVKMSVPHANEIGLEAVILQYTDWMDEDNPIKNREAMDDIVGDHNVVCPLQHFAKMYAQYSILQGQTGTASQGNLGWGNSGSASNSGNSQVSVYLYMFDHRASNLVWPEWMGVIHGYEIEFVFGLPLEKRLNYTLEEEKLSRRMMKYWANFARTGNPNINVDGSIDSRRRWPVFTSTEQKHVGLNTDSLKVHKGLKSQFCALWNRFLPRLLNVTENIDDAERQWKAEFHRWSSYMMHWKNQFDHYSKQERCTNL

[7] = molecular target: Acetylcholinesterase (Electrophorus electricus) (UniProt O42275); assay: Mixed type inhibition of electric eel AChE assessed as decrease in Vmax at 0.16 to 0.64 uM by reciprocal Lineweaver-Burk plot analysis

Row | SMILES | Activity [1] | IC50 [2] | IC50 [3] | Activity [4] | K [5] | inhibition [6] | inhibition [7]
1 | O=c1c2ccc(OCCN3CCOCC3)cc2oc2cc(OCCN3CCOCC3)cc(O)c12 | Active | 31.2 µM | > 300 µM | Active | 1.14 ×10⁵ No_unit | – | –
2 | CN(C)CCOc1ccc2c(=O)c3c(O)cc(OCCN(C)C)cc3oc2c1 | Active | 2.47 µM | 18 µM | Active | 1.65 ×10⁵ No_unit | – | –
3 | O=c1c2ccc(OCCN3CCCCC3)cc2oc2cc(OCCN3CCCCC3)cc(O)c12 | Active | 0.964 µM | 4.02 µM | Active | 2.16 ×10⁵ No_unit | – | –
4 | O=c1c2ccc(OCCN3CCCC3)cc2oc2cc(OCCN3CCCC3)cc(O)c12 | Active | 0.328 µM | 3.7 µM | Active | 2.67 ×10⁵ No_unit | Active | Active
